Experiments:
HBV DNA = assay: Sanger sequencing of HBV DNA fragments from treated HepDE19 cells; assay type: cell-based, Hepatitis B virus (HBV); settings: compared with gRNAc
Experimental: Following treatment with gRNA5/Cas9+gRNA9/Cas9, or gRNAc/Cas9 RNPs, genomic DNA was isolated from HepDE19 cells using the PureLink Genomic DNA Mini Kit (Cat #K182001, Invitrogen). DNA fragments containing the gRNA target sequences were amplified by qPCR using primers flanking the cleavage sites. The PCR products were confirmed using 1% agarose gel electrophoresis and purified using a QIAquick gel extraction kit (Cat #28704, Qiagen). Sequencing of the extracted DNA fragments was performed by GENEWIZ (Chelmsford, MA) using Sanger's sequencing method. The PCR primers used for the detection of gRNA5 and gRNA9 flanking regions are described above. The sequencing readouts were aligned with the gRNAc, which was compared to the HBV sequence in the database (ayw strain, Genbank accession number: NC_003977.2). The Chromas's software (Technelysium DNA sequencing software) was used to read the nucleotide peaks, and the alignment of two or more sequences was performed using the BLAST tool from NCBI-BLAST to compare the nucleotide sequences.
Following a successful CRISPR/Cas9 cleavage, DNA damage repair pathways are initiated, and nucleotide mutagenesis occurs in the targeted genome, introducing substitution mutations. […]

[1] = test system: HBV replication in HepDE19 cells; assay: Suppression of HBV replication in HepDE19 cells by synthetic gRNA/Cas9 RNPs, one-time transfection (ELISA, real-time PCR, RNAscope); assay type: cell-based, Hepatitis B virus (HBV); settings: Tet-free medium 3 days; for HBV mRNA / HBV RNA level (RNAscope) / cccDNA level / pgRNA level / total HBV DNA level: HepDE19 cells, vs gRNAc; for cccDNA level: one-time transfection; for cccDNA level / pgRNA level / total HBV DNA level: real-time PCR; for HBeAg level / HBsAg level: HepDE19 supernatant, ELISA, vs scrambled gRNAc
Experimental: The HepDE19 cell line is tetracycline-controlled HBV stable cells maintained in the presence of 500 μg/ml G418 and 1 μg/ml tetracycline (Tet). Upon withdrawing Tet from the culture fluid of HepDE19 cells, pgRNA transcription, HBV DNA replication, cccDNA formation, and HBV e antigen (HBeAg) production gradually increase in a time-dependent manner. To induce HBV replication, the cells were cultured in a Tet-free medium for 0-10 days, followed by measuring the expression of HBV antigens, HBV cccDNA, and pgRNA using methods previously described. For cell transfection, HepDE19 cells were cultured in Tet-free medium for 2 days. The gRNA/Cas9 RNPs and Lipofectamine CRISPRMAX reagents were prepared in two separate tubes following the manufacturer's instructions. Briefly, 125 ng gRNA, 500 ng GeneArt Platinum Cas9 nuclease, and 1 μl Cas9 Plus reagents were mixed in one tube, and 1.5 μl Lipofectamine CRISPRMAX reagent was added in a separate tube. The gRNA/Cas9 RNP solution was then transferred to the tube containing the Lipofectamine CRISPRMAX solution. The mixture was vortexed and incubated at 25° C. for 10 min to form the gRNA/Cas9 RNP/Lipofectamine CRISPRMAX complex. Meanwhile, HepDE19 cells were seeded in a 24-well plate at 2.0×10^5 cells per well. The gRNA/Cas9 RNP/Lipofectamine CRISPRMAX complex was then added directly to the cell suspension, and the cells were incubated for 72 h, followed by assessing HBV replication with Tet-free medium as described above.
The levels of HBsAg and HBeAg in the supernatants of cell cultures were determined by ELISA (Cat #KA0286 and NBP2-600029, Novus Biologicals, Littleton, CO) according to the manufacturer's protocol. The optical density of antigen levels was measured at 450 nm using a microplate spectrophotometer. The samples were run in triplicate, and the experiments were repeated at least three times.
Total RNA was extracted from the cell pellets by the RNeasy Mini kit (Cat #74104, QIAGEN, Germantown, MD), and 1 μg RNA was converted to cDNA using the Applied Biosystems High-Capacity cDNA Reverse Transcription Kit (Cat #43-688-14, ThermoFisher, Waltham, MA). Quantitative real-time PCR (real-time-qPCR) was performed using iTaq Universal SYBR Green Supermix (Cat #1725124, Bio-Rad, Hercules, CA). The PCR primers were: HBV mRNA forward, 5′-[…]-3′ (SEQ ID NO: 52), reverse, 5′-[…]-3′ (SEQ ID NO: 53); HBV pgRNA forward 5′-[…]-3′ (SEQ ID NO: 54), reverse 5′-[…]-3′ (SEQ ID NO: 55); and GAPDH forward 5′-[…]-3′ (SEQ ID NO: 56), reverse 5′-[…]-3′ (SEQ ID NO: 57). The gene expression levels were determined by the […] method and values were normalized to GAPDH expression as an internal control.
Total and protein-free HBV DNAs were extracted from whole cell lysate using the Hirt DNA method according to a previously published protocol. For HBV cccDNA analysis, the protein-free DNA was treated with 10 units of T5 exonuclease (NEB) at 37° C. for 30 min, followed by 95° C. for 5 min, and diluted 4-fold with nuclease-free water. Next, the cccDNA was cleaned with a DNA clean and concentrator kit (ZYMO Research, Irvine, CA) and used for PCR. HBV total DNA and cccDNA were analyzed by real-time PCR using a TaqMan PCR assay. The primers and probe used to amplify HBV total DNA were: HBV total DNA forward: 5′-[…]-3′ (SEQ ID NO: 58), reverse 5′-[…]-3′ (SEQ ID NO: 59), and internal probe: 5′-FAM-[…]-TAMRA-3′ (SEQ ID NO: 60). The primers and probe used to amplify HBV cccDNA (Genotype D, subtype ayw) were: forward: 5′-[…]-3′ (SEQ ID NO: 61), reverse 5′-[…]-3′ (SEQ ID NO: 62), and internal probe 5′-FAM-[…]-TAMRA-3′ (SEQ ID NO: 63). The PCR reactions were performed in 20 μl volumes and contained 2 μl DNA. The PCR conditions were: 95° C. for 10 min, followed by 45 cycles of 95° C. for 15 s and 64° C. for 30 s. The DNA levels were determined by the […] method and values were normalized to the control group. […]

Sequence	mutations at gRNA-targeted sites of HBV DNA (Sanger sequencing) (HBV DNA)	HBV mRNA / HBV RNA level (RNAscope) [1]	cccDNA level [1]	pgRNA level [1]	total HBV DNA level [1]	HBeAg level [1]	HBsAg level [1]
GGTCTCCATGCGACGTGCAGNGG [gRNA9]	specific DNA indel mutations	significant decreases	significant decreases	significant decreases	significant decreases	significant decreases	significant decreases
GTTATCGCTGGATGTGTCTGNGG (guide GUUAUCGCUGGAUGUGUCUGNGG; complexed with Cas9 protein, chemistry not fully specified) [gRNA5, tested as synthetic gRNA/Cas9 RNP]	specific DNA indel mutations	significant decreases	significant decreases	significant decreases	significant decreases	significant decreases	significant decreases

From US20260191793A1, “HBV SPECIFIC EXOSOMES AND USES THEREOF” (priority 2022, published 2026)
